The values that follow come from patent US20260199316A1, “SOLID DISPERSION, PREPARATION METHOD THEREFOR, AND USE THEREOF” (HANGZHOU GLUBIO PHARMACEUTICAL CO., LTD, priority 2022, published 2026).

The nature of series [1]: Approximate solubility test in solvents. In kind it is physicochemical. The conditions noted are these: organic solvent or mixture, thermodynamic from solid. As to the method: About 5 mg of the API control of Formula A was weighed into a 1.5 mL glass vial, and then a certain amount of different solvents (as shown in Table 1) were gradually added until the solid dissolved or the total volume reached 1 mL. The compound of formula A has a high approximate solubility in a mixed solvent of DCM and MeOH.
Different solvents have different solubility for the compound of formula A, considering the stability factor, DCM:EtOH (9:1, v/v) and acetone:water (9:1, v/v) may be used as solvent systems for the preparation of solid dispersions of the compound of formula A.

The nature of series [2]: Chirality stability in solvents (other studies). In kind it is physicochemical.

Turning to `O=C1CC[C@H](N2Cc3cc(C(=O)N[C@H](c4ccc(Cl)cn4)C4CCC4)ccc3C2=O)C(=O)N1` [compound of formula A, N—((S)-(5-chloropyridin-2-yl)(cyclobutyl)methyl)-2-((S)-2,6-dioxopiperidin-3-yl)-1-oxoisoindoline-5-carboxamide], the solubility in series [1] (solvent ACN), in series [1] (solvent Acetone), in series [1] (solvent Acetone:ACN (1:1)), in series [1] (solvent Acetone:DCM (1:1)), in series [1] (solvent Acetone:DCM (4:1)) and in series [1] (solvent Acetone:THF (1:1)) was below 5 mg/mL in each case. The solubility is below 5 mg/mL in series [1] (solvent DCM); 25 to 50 mg/mL in series [1] (solvent DCM:MeOH (1:1)); 50 to 100 mg/mL in series [1] (solvent DCM:MeOH (2:1)); 50 to 100 mg/mL in series [1] (solvent DCM:MeOH (4:1)); 50 to 100 mg/mL in series [1] (solvent DCM:MeOH (5:1)); 50 to 100 mg/mL in series [1] (solvent DCM:MeOH (7:1)). Further, the solubility in series [1] (solvent DCM:MeOH (9:1)) is 25 to 50 mg/mL; in series [1] (solvent DCM:MeOH (99:1)), below 5 mg/mL; in series [1] (solvent DCM:THF (1:1)), below 5 mg/mL; in series [1] (solvent DCM:THF (4:1)), below 5 mg/mL; in series [1] (solvent Ethyl acetate), below 5 mg/mL; in series [1] (solvent MeOH), below 5 mg/mL. Moreover, the solubility in series [1] (solvent THF) is below 5 mg/mL; in series [1] (v/v), solvent Acetone:Water (9:1)) it was 15 to 50 mg/mL; in series [1] (v/v), solvent DCM:EtOH (9:1)), 5 to 15 mg/mL. For the same compound, the Chirality stability result in series [2] (in MeOH) is recorded as “rapidly racemized”; in series [2] (in acetone and ethanol), “better chirality stability”.
